Reference: patent US12037324B2, “Biarylmethyl heterocycles” (Université de Montréal, priority 2016, dated 2024)

Experiments:
[1] = target: T1, hAT1R (Homo sapiens, UniProt P30556); test: cell-based; conditions: Low AT1R Expression; for EC50: read-out: BRET β-Arrestin2 Low AT1R Expression EC50
T1 sequence (P30556 1-359): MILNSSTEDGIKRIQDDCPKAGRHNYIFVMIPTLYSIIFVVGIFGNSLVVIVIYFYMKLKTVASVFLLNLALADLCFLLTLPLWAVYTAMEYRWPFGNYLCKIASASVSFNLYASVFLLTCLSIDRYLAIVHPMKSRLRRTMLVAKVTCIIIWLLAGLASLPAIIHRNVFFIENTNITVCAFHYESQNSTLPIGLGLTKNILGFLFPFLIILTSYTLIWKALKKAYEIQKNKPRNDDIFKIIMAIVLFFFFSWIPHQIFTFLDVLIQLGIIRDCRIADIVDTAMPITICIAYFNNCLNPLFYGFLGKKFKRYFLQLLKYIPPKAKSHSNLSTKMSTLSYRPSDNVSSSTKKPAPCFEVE

[2] = target: T2, AGTR1 (Homo sapiens, UniProt P30556); test: DiscoveRx IP1 accumulation assay (HTRF), agonist mode, Pathunter CHO-K1 AGTR1 β-arrestin cell line; type: cell-based; conditions: for EC50: read-out: IP-1 EC50
T2 construct: host or cells: Pathunter CHO-K1 AGTR1 β-arrestin cell line (CHO-K1)
T2 sequence (P30556 1-359): T1 sequence (P30556 1-359)
Method in brief: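 Agonist mode in CHO-K1 AGTR1 β-arrestin cells plated 14-16 h before; compounds at varying concentrations for 90 min at 37° C, IP1 accumulation read by HTRF (D2-conjugate and anti-IP1 cryptate, 20 min room temperature). EC50 from 4-parameter logistic fit; activity given as percentage of maximal AII effect.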

[3] = target: T1, hAT1R; test: BRET β-arrestin2 biosensor assay, higher receptor expression (hAT1R 5 ng/well), HEK293 cells; type: cell-based; conditions: for EC50: High AT1R Expression
[4] = target: T2, AGTR1; test: DiscoveRx β-arrestin2 recruitment assay (enzyme complementation, Pathunter CHO-K1 AGTR1 β-arrestin cell line); type: cell-based; conditions: DiscoveRx β-arrestin2 recruitment; for DiscoveRx β-arrestin2 Ymax (%): maximal response
Method in brief: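 CHO-K1 cells expressing AGTR1 with β-arrestin2 enzyme-complementation reporter, plated 14-16 h ahead in 1% serum medium, then exposed to compounds for 90 min at 37° C. Chemiluminescence read after 1 h detection. EC50 (agonist) or IC50 (antagonist) from 4-parameter logistic fit; activity as percentage of All maximal effect.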

[5] = target: T1, hAT1R; test: cell-based; conditions: agonist mode; for EC50: read-out: BRET P63 EC50

| SMILES | BRET β-Arrestin2 Low AT1R Expression Ymax (%) [1] | EC50 [1] | IP-1 Ymax (%) [2] | EC50 [2] | BRET β-Arrestin2 High AT1R Expression Ymax (%) [3] | EC50 [3] | EC50 [4] | DiscoveRx β-arrestin2 Ymax (%) [4] | BRET P63 Ymax [5] | EC50 [5] |
| --- | --- | --- | --- | --- | --- | --- | --- | --- | --- | --- |
| CCc1nc2c(C)cc(C)nc2n1Cc1ccc(-c2cc(C3CCCCO3)ccc2-c2nn[nH]n2)cc1 (single isomer, unassigned) [Example 78, 2-ethyl-5,7-dimethyl-3-((5′-(tetrahydro-2H-pyran-2-yl)-2′-(2H-tetrazol-5-yl)-[1,1′-biphenyl]-4-yl)methyl)-3H-imidazo[4,5-b]pyridine] | 85.0% | 37.5 nM | 37.8% | 79.5 nM | 94.3% | 15 nM | 19.9 nM | 50.0% | 36.1% | 72.3 nM |
| CCCCC1=NC2(CCOC2)C(=O)N1Cc1ccc(-c2cc(-c3ccccc3)ccc2-c2nnn[nH]2)cc1 (single isomer, unassigned) [Example 146] | 35.0% | 52.6 nM | 8.3% | 76.2 nM | 85.6% | 38.2 nM | 31.6 nM | 34.0% | – | > 100000 nM |
| CCCCC1=NC2(CCOC2)C(=O)N1Cc1ccc(-c2cc(-c3ccccc3)ccc2-c2nnn[nH]2)cc1 (single isomer, unassigned) [Example 147, 3-((6′-(1H-tetrazol-5-yl)-[1,1′:3′,1″-terphenyl]-4-yl)methyl)-2-butyl-7-oxa-1,3-diazaspiro[4.4]non-1-en-4-one] | 26.1% | 109 nM | 3.6% | 178 nM | 66.6% | 126 nM | 107 nM | 23.0% | – | > 100000 nM |
| CCc1nc2c(C)cc(C)nc2n1Cc1ccc(-c2cc(-c3ccccc3C)ccc2-c2nn[nH]n2)cc1 [Example 2] | 15.2% | 11 nM | 13.1% | 71.8 nM | 74.2% | 11.3 nM | 19.8 nM | 21.8% | 2.7% | 22 nM |
| CCc1nc2c(C)cc(C)nc2n1Cc1ccc(-c2cc(-c3ccccc3)ccc2-c2nn[nH]n2)cc1 [Example 4] | 69.3% | 8.2 nM | 9.8% | 19 nM | 95.4% | 3.8 nM | 7.5 nM | 48.9% | 13.0% | 4.8 nM |
| CCc1nc2c(C)cc(C)nc2n1Cc1ccc(-c2cc(-c3cccc(C)c3)ccc2-c2nn[nH]n2)cc1 [Example 8] | 80.5% | 5.4 nM | 6.9% | 6 nM | 93.0% | 4.1 nM | 6 nM | 42.2% | 14.0% | 7.7 nM |
| CCc1nc2c(C)cc(C)nc2n1Cc1ccc(-c2cc(-c3cc(C)cc(C)c3)ccc2-c2nn[nH]n2)cc1 [Example 9] | 80.3% | 9.4 nM | 7.1% | 8.7 nM | 87.8% | 5.6 nM | 3.7 nM | 66.7% | 14.2% | 19.5 nM |
| CCc1nc2c(C)cc(C)nc2n1Cc1ccc(-c2cc(-c3ccccc3O)ccc2-c2nn[nH]n2)cc1 [Example 10] | 86.8% | 2.4 nM | 14.4% | 5 nM | 86.9% | 1.4 nM | 1.4 nM | 60.3% | 26.1% | 2.8 nM |
| CCc1nc2c(C)cc(C)nc2n1Cc1ccc(-c2cc(-c3cccc(OC)c3)ccc2-c2nn[nH]n2)cc1 [Example 20] | 59.5% | 12.2 nM | 9.9% | 12.8 nM | 85.5% | 4.3 nM | 4.9 nM | 38.7% | 12.0% | 10.8 nM |
